The values that follow are results of earlier work, collected in US7772273B2 (LifeCycle Pharma A/S, priority 2006, dated 2010).

Like-named read-outs stand apart in the source and are kept apart here.

For data set [1] the following is noted: at 25° C.
For data set [2] the following is noted: oral.

`NC(CO)(CO)CO` [Trometamol, 2-amino-2-(hydroxymethyl)-1,3-propanediol]: the Water solubility result in data set [1] is “about 550 mg/mL”.

With `CC(C)c1c(C(=O)Nc2ccccc2)c(-c2ccccc2)c(-c2ccc(F)cc2)n1CCC(O)CC(O)CC(=O)O` (stereo not drawn) [atorvastatin, 2-(4-fluorophenyl)-β,δ-dihydroxy-5-(1-methylethyl)-3-phenyl-4-[(phenylamino)carbonyl]-1H-pyrrole-1-heptanoic acid], the “Systemic availability of HMG-CoA reductase inhibitory activity” value in data set [2] is recorded as “approximately 30%”. Besides, the LDL-C reduction entry is listed as “similar” with LDL-C (given with or without food) and “the same” in the data set with LDL-C (regardless of the time of day of drug administration).
